Data set [1] deals with T1, human acetyl-CoA carboxylase 2 (ACC2) (Homo sapiens, UniProt O00763).
T1 construct: The cDNA encoding amino acids 144 to 2458 of human acetyl-CoA carboxylase 2; made in house; host or cells: Sf9 insect cells (baculovirus, pFastBac1)
Description: Acetyl-CoA carboxylase enzyme assay (malonyl-CoA formation by LC/MS/MS). It counts as biochemical. As to conditions: recombinant human ACC2 (aa 144-2458); read-out: IC50 ACC2. The method, boiled down: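 Malonyl-CoA formation was read by LC/MS/MS MRM against a [13C3]-malonyl-CoA internal standard, after acetic acid quench. The enzyme was baculovirus/Sf9-expressed human ACC2 residues 144–2458, given 15 minutes room-temperature compound preincubation in HEPES pH 7.5 buffer with MgCl2, citrate and DTT. Substrate solution held 50 μM acetyl-CoA, 120 μM ATP and 2 mM KHCO3.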

Data set [2] concerns HCVcc genotype 2a (JFH-1 strain) virus. Description: HCV assay: JFH-1 rLuc infection of Huh 7.5 cells, renilla luciferase readout. It counts as cell-based. As to conditions: Hepatitis C virus, Huh7.5; JFH-1 rLuc virus, MOI=0.01, Huh 7.5 cells, 72 hours, luciferase activity reduced by 50%. On the procedure:
(§1) The effect of compounds on HCV infection was determined in vitro using cell cultured (HCVcc) genotype 2a (JFH-1 strain) virus. A renilla luciferase reporter gene was inserted in the viral genome, the expression of which was under the control of HCV 5′UTR (JFH-1^rLuc). Thus, the inhibition of HCV infection or replication can be indirectly measured by the reduction of luciferase activity in the cells. A specifically adapted hepatoma cell line, Huh 7.5, which allowed higher infectivity of HCV in vitro, was cultured in Dulbecco's modified Eagle's medium (DMEM) supplemented with 2 mM L-glutamine, 0.1 mM non-essential amino acids and 10% heat-inactivated fetal bovine serum. The cells were infected with JFH-1^rLuc virus at an MOI=0.01 and were treated at the same time with serially diluted compounds. After 72 hours, luciferase activities in compound-treated cells were measured using the Renilla Luciferase Assay System (Promega) and were compared to those in untreated control cells. Concentration-dependent inhibition curves were generated, from which EC50 values, the concentrations of compounds at which luciferase activities were reduced by 50% relative to untreated control, were calculated. In parallel, cytotoxicity of compounds was determine by measuring the viability of compound-treated cells using CellTiter 96® AQueous One Solution Cell Proliferation Assay (Promega). CC50 represented the concentration of the compound at which cell viability was reduced by 50% compared to untreated control.

The nature of another data set: in vitro. It counts as cell-based. As to conditions: human. The procedure:
as §1

T1 sequence (O00763 144-2458): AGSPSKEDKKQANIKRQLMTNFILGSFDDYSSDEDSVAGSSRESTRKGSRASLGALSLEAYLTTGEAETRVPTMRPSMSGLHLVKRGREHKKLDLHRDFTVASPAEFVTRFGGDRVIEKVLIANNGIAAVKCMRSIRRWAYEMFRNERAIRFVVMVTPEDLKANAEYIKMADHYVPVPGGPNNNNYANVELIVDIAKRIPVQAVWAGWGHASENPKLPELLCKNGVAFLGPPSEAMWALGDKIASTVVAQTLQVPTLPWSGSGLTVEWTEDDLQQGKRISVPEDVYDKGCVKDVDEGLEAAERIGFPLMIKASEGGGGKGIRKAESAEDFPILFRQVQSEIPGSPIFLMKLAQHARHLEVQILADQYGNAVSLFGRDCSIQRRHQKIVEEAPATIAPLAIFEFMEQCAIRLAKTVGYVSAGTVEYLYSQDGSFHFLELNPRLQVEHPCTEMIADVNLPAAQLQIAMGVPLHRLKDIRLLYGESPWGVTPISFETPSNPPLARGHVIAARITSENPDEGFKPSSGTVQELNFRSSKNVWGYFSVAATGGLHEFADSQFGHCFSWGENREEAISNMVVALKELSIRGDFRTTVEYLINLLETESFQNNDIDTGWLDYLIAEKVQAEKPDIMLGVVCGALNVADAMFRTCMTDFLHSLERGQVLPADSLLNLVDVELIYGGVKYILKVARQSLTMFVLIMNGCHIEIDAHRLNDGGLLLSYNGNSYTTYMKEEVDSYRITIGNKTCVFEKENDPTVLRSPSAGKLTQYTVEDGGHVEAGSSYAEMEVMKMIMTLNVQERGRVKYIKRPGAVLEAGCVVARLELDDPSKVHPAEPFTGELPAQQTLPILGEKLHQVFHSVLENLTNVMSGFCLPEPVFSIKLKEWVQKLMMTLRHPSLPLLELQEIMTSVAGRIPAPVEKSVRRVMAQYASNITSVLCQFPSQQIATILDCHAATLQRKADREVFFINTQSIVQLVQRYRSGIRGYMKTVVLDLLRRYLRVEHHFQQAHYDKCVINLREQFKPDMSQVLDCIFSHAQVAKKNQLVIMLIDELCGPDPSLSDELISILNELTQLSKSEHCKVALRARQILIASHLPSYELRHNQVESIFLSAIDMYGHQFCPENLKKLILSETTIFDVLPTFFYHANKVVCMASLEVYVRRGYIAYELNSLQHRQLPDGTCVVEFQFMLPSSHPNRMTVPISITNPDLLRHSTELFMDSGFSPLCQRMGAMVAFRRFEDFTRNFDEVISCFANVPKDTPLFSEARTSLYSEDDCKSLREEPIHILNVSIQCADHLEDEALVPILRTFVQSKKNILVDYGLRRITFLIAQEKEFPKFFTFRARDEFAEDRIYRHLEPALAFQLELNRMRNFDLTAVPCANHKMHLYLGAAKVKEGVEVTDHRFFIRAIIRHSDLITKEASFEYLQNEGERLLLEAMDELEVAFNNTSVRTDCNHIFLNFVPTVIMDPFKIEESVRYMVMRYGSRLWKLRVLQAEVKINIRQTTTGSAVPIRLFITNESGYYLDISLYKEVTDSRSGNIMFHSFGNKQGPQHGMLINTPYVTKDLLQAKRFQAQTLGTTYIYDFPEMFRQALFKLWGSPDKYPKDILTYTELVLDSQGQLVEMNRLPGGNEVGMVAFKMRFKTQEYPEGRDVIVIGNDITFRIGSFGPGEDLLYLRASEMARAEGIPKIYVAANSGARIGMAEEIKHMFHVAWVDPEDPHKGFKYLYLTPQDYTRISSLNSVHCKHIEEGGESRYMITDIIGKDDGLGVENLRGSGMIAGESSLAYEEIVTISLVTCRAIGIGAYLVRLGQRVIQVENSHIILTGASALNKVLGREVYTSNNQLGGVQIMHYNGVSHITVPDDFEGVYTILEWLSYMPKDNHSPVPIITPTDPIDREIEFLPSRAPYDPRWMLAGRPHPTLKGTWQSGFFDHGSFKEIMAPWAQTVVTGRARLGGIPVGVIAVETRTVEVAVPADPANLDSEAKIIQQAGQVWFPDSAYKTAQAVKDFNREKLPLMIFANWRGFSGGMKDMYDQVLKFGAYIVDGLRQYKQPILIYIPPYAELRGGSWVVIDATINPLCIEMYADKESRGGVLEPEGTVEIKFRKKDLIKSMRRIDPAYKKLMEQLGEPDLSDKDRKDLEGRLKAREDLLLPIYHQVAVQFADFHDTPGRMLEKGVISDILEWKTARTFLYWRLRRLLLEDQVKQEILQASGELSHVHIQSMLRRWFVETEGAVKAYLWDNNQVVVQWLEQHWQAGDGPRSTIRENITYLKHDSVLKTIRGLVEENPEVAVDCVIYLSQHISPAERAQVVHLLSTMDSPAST

In general, IC50 refers to the concentration needed to halve the response being measured. As usually defined, the EC50 is the concentration giving half of the maximal effect. A low value points to an effect from little substance. What is called CC50 is the concentration at which the toxic effect on the cells reaches its halfway point. Read a low CC50 as greater toxicity to the cells. Turning to `CC(C)[C@H]1COCCN1C(=O)[C@H]1CC[C@H](NS(=O)(=O)c2ccc3c(Cl)c(-c4ccc(CCC(=O)O)cc4)n(C)c3c2)CC1` [Example 25, 3-(4-(3-chloro-6-(N-((1S,4r)-4-((S)-3-isopropylmorpholine-4-carbonyl)cyclohexyl)sulfamoyl)-1-methyl-H-indol-2-yl)phenyl)propanoic acid], in data set [1], the half-maximal inhibitory concentration (IC50) is under 10 nM. In data set [2], the 50% effective concentration (EC50) is 680 nM. The compound further yielded a CC50 at 72 h in the data set “in vitro” of over 33000 nM.

In the case of `Cn1c(-c2ccc(CCC(=O)O)cc2)c(Cl)c2ccc(S(=O)(=O)N[C@H]3CC[C@H](C(=O)N4CCOC[C@@H]4C4CC4)CC3)cc21` [Example 28, 3-(4-(3-chloro-6-(N-((1S,4r)-4-((S)-3-cyclopropylmorpholine-4-carbonyl)cyclohexyl)sulfamoyl)-1-methyl-1H-indol-2-yl)phenyl)propanoic acid], the IC50 in data set [1] is under 10 nM. In data set [2], this compound yielded an EC50 of 510 nM. The compound further registered a CC50 at 72 h in “in vitro” of over 33000 nM.

Regarding `CC(C)[C@H]1COCCN1C(=O)[C@H]1CC[C@H](NS(=O)(=O)c2ccc3cc(-c4ccc(CCC(=O)O)cc4)n(C)c3c2)CC1` [Example 29, 3-(4-(6-(N-((1S,4r)-4-((S)-3-isopropylmorpholine-4-carbonyl)cyclohexyl)sulfamoyl)-1-methyl-1H-indol-2-yl)phenyl)propanoic acid], the IC50 in data set [1] is under 10 nM. In data set [2], this compound had an EC50 of 2420 nM. In the data set “in vitro”, this compound displayed a CC50 at 72 h of over 33000 nM.

Turning to `COCCc1ccc(-c2cc3ccc(S(=O)(=O)N[C@H]4CC[C@H](C(=O)N5CCOC[C@@H]5C)CC4)cc3[nH]2)cc1` [Example 30, 2-(4-(2-methoxyethyl)phenyl)-N-((1S,4r)-4-((S)-3-methylmorpholine-4-carbonyl)cyclohexyl)-1H-indole-6-sulfonamide], the concentration for half-maximal inhibition (IC50) in data set [1] was 10 nM. Moreover, the concentration giving a half-maximal response (EC50) in data set [2] is 710 nM. Further, the CC50 at 72 h in “in vitro” was over 33000 nM.

`COC1CCN(C(=O)[C@H]2CC[C@H](NS(=O)(=O)c3ccc4[nH]c(-c5ccccc5)nc4c3)CC2)CC1` [Example 669, N-((1r,4r)-4-(4-methoxypiperidine-1-carbonyl)cyclohexyl)-2-phenyl-1H-benzo[d]imidazole-5-sulfonamide]: in data set [1], the IC50 came to 362 nM.

As for `Cn1ccc2cc(S(=O)(=O)N[C@H]3CC[C@H](C(=O)N[C@H](CO)c4ccccc4)CC3)ccc21` [Example 670, (1r,4S)-N-((S)-2-hydroxy-1-phenylethyl)-4-(1-methyl-1H-indole-5-sulfonamido)cyclohexanecarboxamide], the IC50 in data set [1] was 66 nM.

`Cn1ccc2cc(S(=O)(=O)N[C@H]3CC[C@H](C(=O)N[C@@H](CO)c4ccccc4)CC3)ccc21` [Example 671, (1r,4R)-N-((R)-2-hydroxy-1-phenylethyl)-4-(1-methyl-1H-indole-5-sulfonamido)cyclohexanecarboxamide]: the IC50 in data set [1] was over 35000 nM.

As for `Cn1ccc2cc(S(=O)(=O)N[C@H]3CC[C@H](C(=O)N[C@H]4CCCCNC4=O)CC3)ccc21` [Example 672, (1r,4S)-4-(1-methyl-1H-indole-5-sulfonamido)-N-((S)-2-oxoazepan-3-yl)cyclohexanecarboxamide], in data set [1], the IC50 was found to be 639 nM.

Turning to `Cn1ccc2cc(S(=O)(=O)N[C@H]3CC[C@H](C(=O)N[C@H](CCO)c4ccccc4)CC3)ccc21` [Example 673, (1r,4R)-N-((R)-3-hydroxy-1-phenylpropyl)-4-(1-methyl-1H-indole-5-sulfonamido)cyclohexanecarboxamide], the IC50 in data set [1] amounted to 138 nM.

Consider `COC[C@@H](NC(=O)[C@H]1CC[C@H](NS(=O)(=O)c2ccc3c(ccn3C)c2)CC1)c1ccccc1` [Example 674, (1r,4S)-N-((S)-2-methoxy-1-phenylethyl)-4-(1-methyl-1H-indole-5-sulfonamido)cyclohexanecarboxamide], for which, in data set [1], the IC50 is 771 nM.

Regarding `COCCN(C(=O)[C@H]1CC[C@H](NS(=O)(=O)c2ccc3[nH]c(-c4ccccc4)nc3c2)CC1)C(C)C` [Example 675, (1r,4R)-N-isopropyl-N-(2-methoxyethyl)-4-(2-phenyl-1H-benzo[d]imidazole-5-sulfonamido)cyclohexanecarboxamide], the IC50 in data set [1] was 105 nM.

In the case of `COCCN(C(=O)[C@H]1CC[C@H](NS(=O)(=O)c2ccc3[nH]c(-c4ccccc4)nc3c2)CC1)C1CCCCC1` [Example 676, (1r,4R)-N-cyclohexyl-N-(2-methoxyethyl)-4-(2-phenyl-1H-benzo[d]imidazole-5-sulfonamido)cyclohexanecarboxamide], in data set [1], the half-inhibitory concentration (IC50) was found to be 23 nM.

For the compound `C[C@@H](NC(=O)[C@H]1CC[C@H](NS(=O)(=O)c2ccc3ccccc3c2)CC1)c1ccc(F)cc1` [Example 677, (1r,4R)-N-((R)-1-(4-fluorophenyl)ethyl)-4-(naphthalene-2-sulfonamido)cyclohexanecarboxamide], in data set [1], the concentration for half-maximal inhibition (IC50) stood at 10 nM.

Turning to `C[C@@H](NC(=O)[C@H]1CC[C@H](NS(=O)(=O)c2cccc3ccccc23)CC1)c1ccc(F)cc1` [Example 678, (1r,4R)-N-((R)-1-(4-fluorophenyl)ethyl)-4-(naphthalene-1-sulfonamido)cyclohexanecarboxamide], the IC50 in data set [1] worked out at 433 nM.

In the case of `COCC[C@@H](NC(=O)[C@H]1CC[C@H](NS(=O)(=O)c2ccc3c(ccn3C)c2)CC1)c1ccccc1` [Example 679, (1r,4R)-N-((R)-3-methoxy-1-phenylpropyl)-4-(1-methyl-1H-indole-5-sulfonamido)cyclohexanecarboxamide], the IC50 in data set [1] is 110 nM.

On to `CC(NC(=O)[C@H]1CC[C@H](NS(=O)(=O)c2ccc3ccccc3c2)CC1)c1cccnc1` (stereo partly drawn) [Example 680, (1r,4r)-4-(naphthalene-2-sulfonamido)-N-(1-(pyridin-3-yl)ethyl)cyclohexanecarboxamide], for which the IC50 in data set [1] is 240 nM.

With `CC(NC(=O)[C@H]1CC[C@H](NS(=O)(=O)c2ccc3cc(Cl)ccc3c2)CC1)c1cccnc1` (stereo partly drawn) [Example 681, (1r,4r)-4-(6-chloronaphthalene-2-sulfonamido)-N-(1-(pyridin-3-yl)ethyl)cyclohexanecarboxamide], in data set [1], the IC50 amounted to 142 nM.

As to `C[C@@H](NC(=O)[C@H]1CC[C@H](NS(=O)(=O)c2ccc3ccccc3c2)CC1)c1cccnc1` [Example 682, (1r,4R)-4-(naphthalene-2-sulfonamido)-N-((R)-1-(pyridin-3-yl)ethyl)cyclohexanecarboxamide], the IC50 in data set [1] came to 144 nM.

As to `C[C@H](NC(=O)[C@H]1CC[C@H](NS(=O)(=O)c2ccc3ccccc3c2)CC1)c1cccnc1` [Example 683, (1r,4S)-4-(naphthalene-2-sulfonamido)-N-((S)-1-(pyridin-3-yl)ethyl)cyclohexanecarboxamide], the IC50 in data set [1] is over 35000 nM.

Turning to `C[C@@H](NC(=O)[C@H]1CC[C@H](NS(=O)(=O)c2ccc3cc(Cl)ccc3c2)CC1)c1cccnc1` [Example 684, (1r,4R)-4-(6-chloronaphthalene-2-sulfonamido)-N-((R)-1-(pyridin-3-yl)ethyl)cyclohexanecarboxamide], in data set [1], the half-maximal inhibitory concentration (IC50) is 180 nM.

In the case of `O=S(=O)(N[C@H]1CC[C@H](c2nnc(C3CCCCC3)o2)CC1)c1ccc2c(c1)CNCC2` [Example 685, N-((1r,4r)-4-(5-cyclohexyl-1,3,4-oxadiazol-2-yl)cyclohexyl)-1,2,3,4-tetrahydroisoquinoline-7-sulfonamide], the IC50 in data set [1] is over 35000 nM.

As for “N-(4-(5-isopropyl-1,3,4-oxadiazol-2-yl)phenyl)-2-(4-morpholinophenyl)-1H-benzo[d]imidazole-5-sulfonamide [Example 591]”, the 50% inhibitory concentration (IC50) in data set [1] was determined as 1130 nM.

The values are drawn from US8697739B2, “Bicyclic acetyl-CoA carboxylase inhibitors and uses thereof” (Novartis AG, priority 2010, dated 2014).
